{"source": "patent US9198979B2", "about": "“Thiazolidine linker for the conjugation of drugs to antibodies” (Philogen S.P.A., priority 2010, dated 2015)", "key": {"HEK293T cells": {"tested_on": "HEK293T cells", "experiment": "In vitro toxicity assay (MTS cell proliferation assay), HEK293T", "type": "cell-based, human", "conditions": "~72 hours", "description": "HEK293T cells were grown in RPMI (Gigbo-Invitrogen) medium supplemented with 10% FCS and antibiotics and maintained at 37° C. in 5% CO2.\n(§1) For the in vitro toxicity assay 30000 cells/well (final volume 100 μl) were seeded in a 96 well plate with a defined peptide dilution (by adding 1.5 μl of peptide solution to 500 μl of cell suspension) and incubated at 37° C. in 5% CO2.\n(§2) After ˜72 hours, cell viability was measured using the “Cell Titer 96®Aqueous One Solution Cell Proliferation Assay” (Promega), performed according to the manufacturers instruction. Briefly: 20 μl of MTS solution were added to each well, the plate was then incubated at 37° C. for 2 hour. The read out of the assay is the absorbance at 490 nm."}, "F9 teratocarcinoma cells": {"tested_on": "F9 teratocarcinoma cells", "experiment": "In vitro toxicity assay (MTS cell proliferation assay), F9", "type": "cell-based, murine", "conditions": "F9, ~72 hours", "description": "as §1, §2\n(§3) The experiments were then extended to F9 and HL60 cells in the same manner.\nCem-CH2—SH cell killing ability was evaluated by cytotoxicity assays: one non-tumor cell line (human embryonic kidney cells, HEK 293T) and two tumor cell lines, murine F9 teratocarcinoma cells (F9) and human promyelocytic leukemia cells (HL60), were incubated over 3 days with different concentrations of non-modified cemadotin and the derivative Cem-CH2—SH (FIG. 20)."}, "HL60 cells": {"tested_on": "HL60 cells", "experiment": "In vitro toxicity assay (MTS cell proliferation assay), HL60", "type": "cell-based, human", "conditions": "HL60, ~72 hours", "description": "as §1, §2, §3"}}, "note": "Like-named read-outs stand apart in the source and are kept apart here.", "data": [{"substance": "BSA-fluorescein conjugate: BSA conjugated to carboxyfluorescein by the thiazolidine linker", "values": [{"measurement": "t1/2 thiazolidine (fluorescein release half-life)", "setting": "pH 6.6", "value": 37, "unit": "h"}, {"measurement": "t1/2 thiazolidine (fluorescein release half-life)", "setting": "pH 7.4", "value": 44, "unit": "h"}]}, {"substance": "Cemadotin", "values": [{"measurement": "cytotoxicity (IC50)", "setting": "HEK293T cells", "value": "sub-nanomolar"}, {"measurement": "cytotoxicity (IC50)", "setting": "F9 teratocarcinoma cells", "value": "sub-nanomolar"}, {"measurement": "cytotoxicity (IC50)", "setting": "HL60 cells", "value": "sub-nanomolar"}]}]}
